Entries after “also recorded” stand apart in the source; their conditions may differ. Where two headings read alike, the source gives them in different places.
Assays:
DGAT −/−mice = assay: Hepatic triglyceride levels in DGAT +/− and DGAT −/− mice dosed with AEGR-733; type: in vivo; conditions: DGAT −/− mice treated with AEGR-733 compared to DGAT +/− mice treated with AEGR-733; oral gavage for four successive days, chow diet, euthanized approximately 6 hours after the last dose
Experimental: DGAT +/−mice or DGAT −/−mice (Jackson Laboratory, Me., U.S.A.) were fed a chow diet ad libitum. Mice were dosed by oral gavage for four successive days with AEGR-733 or with vehicle control at about 9:00 AM. AEGR-733 was dissolved in M-pyrol and diluted to appropriate concentration in vehicle. Final vehicle composition was 10% M-pyrol, 80% water, 5% cremophore, and 5% ethanol. Dosing volume was 200 μl. The mice were euthanized approximately 6 hours after the last dose. Blood was obtained at time of sacrifice by orbital eye bleed and plasma was made for determination of total cholesterol (TC), high density lipoprotein cholesterol (HDL-C), triglyceride (TG) and non-HDL-C.

[1] = 25 mg/day, some patients, monotherapy, cited from earlier work
[2] = cited from earlier work
[3] = clinical studies, dosages of 80 mg/day or greater

O=C(NC1CCN(CCCCC2(C(=O)NCC(F)(F)F)c3ccccc3-c3ccccc32)CC1)c1ccccc1-c1ccc(C(F)(F)F)cc1 [AEGR-733, N-(2,2,2-Trifluorethyl)-9-[4-[4-[[[4′-(trifluoromethyl)[1,1′biphenyl]-2-Yl]carbonyl]amino]-1-piperidinyl]butyl]9H-fluorene-9-carboxamide]
hepatic triglyceride levels (DGAT −/−mice): significantly reduced; also recorded: significantly lower | adverse events [1]: gastrointestinal disorders, abnormalities in liver function and/or hepatic steatosis | adverse events ([1]; listed as BMS-201038): gastrointestinal disturbances, abnormalities in liver function, and hepatic steatosis

Cc1cc(C)c2c3ccccc3n(Cc3ccc([C@@H](C(=O)N[C@H](CO)c4ccccc4)C4CCCC4)cc3)c2n1 [implitapide, (2S)-2-cyclopentyl-2-[4-[(2,4-dimethyl-9H-pyrido[2,3-b]indol-9-yl)methyl]phenyl]-N-[(1S)-2-hydroxy-1-phenylethyl]ethanamide]
adverse events ([2]; 80 mg/day): gastrointestinal disorders, abnormalities in liver function and/or hepatic steatosis | adverse events ([2]; 160 mg/day): gastrointestinal disorders, abnormalities in liver function and/or hepatic steatosis | adverse events [2, 3]: gastrointestinal disturbances, abnormalities in liver function, and hepatic steatosis | therapeutic effectiveness [2, 3]: therapeutically effective
